We go through two compounds from PMC7146753, “Self-Assembly, Nematic Phase Formation, and Organocatalytic Behavior of a Proline-Functionalized Lipopeptide” (ACS Applied Materials & Interfaces, 2020).

Where a SMILES comes first, the peptide text is derived from it. The star is where a group is joined. Palmitoyl = CCCCCCCCCCCCCCCC(=O)*; NHhexadecyl = CCCCCCCCCCCCCCCCN*

The test system of test [1] is human dermal fibroblast (HDFa) cells. The settings on record: 72 h.
Test [2] relates to human breast cancer (MCF-7) cells. As to conditions: 72 h.

As a reminder, the IC50 is the concentration at which inhibition is half-maximal. Read a high IC50 as weaker potency. Regarding `CCCCCCCCCCCCCCCC(=O)N[C@H](C(=O)N[C@@H](CCCCN)C(=O)N1CCC[C@H]1C(=O)N[C@@H](CCC(=O)O)C(=O)N[C@@H](C)C(=O)N1CCC[C@H]1C(=O)O)[C@@H](C)CC` [C16-IKPEAP] (Palmitoyl-IKPEAP-OH), the IC50 in test [1] came out at 390 µM; in test [2], 630 µM.

As to `CCCCCCCCCCCCCCCCNC(=O)[C@@H](NC(=O)[C@H](CCCCN)NC(=O)[C@@H]1CCCN1C(=O)[C@H](CCC(=O)O)NC(=O)[C@H](C)NC(=O)[C@@H]1CCCN1)[C@@H](C)CC` [PAEPKI-C16] (H-PAEPKI-NHhexadecyl), the IC50 in test [1] was 100 µM; in test [2], 230 µM.
